Legend:
MITF dimer = target: T1, MITF dimer (Homo sapiens, UniProt O75030); assay: AlphaScreen high-throughput screening model MIDAS (MITF Dependent Alpha-Screen), MITF dimer formation; assay type: binding; conditions: read-out: IC50 of inhibiting formation of MITF dimer
T1 sequence (O75030 1-526): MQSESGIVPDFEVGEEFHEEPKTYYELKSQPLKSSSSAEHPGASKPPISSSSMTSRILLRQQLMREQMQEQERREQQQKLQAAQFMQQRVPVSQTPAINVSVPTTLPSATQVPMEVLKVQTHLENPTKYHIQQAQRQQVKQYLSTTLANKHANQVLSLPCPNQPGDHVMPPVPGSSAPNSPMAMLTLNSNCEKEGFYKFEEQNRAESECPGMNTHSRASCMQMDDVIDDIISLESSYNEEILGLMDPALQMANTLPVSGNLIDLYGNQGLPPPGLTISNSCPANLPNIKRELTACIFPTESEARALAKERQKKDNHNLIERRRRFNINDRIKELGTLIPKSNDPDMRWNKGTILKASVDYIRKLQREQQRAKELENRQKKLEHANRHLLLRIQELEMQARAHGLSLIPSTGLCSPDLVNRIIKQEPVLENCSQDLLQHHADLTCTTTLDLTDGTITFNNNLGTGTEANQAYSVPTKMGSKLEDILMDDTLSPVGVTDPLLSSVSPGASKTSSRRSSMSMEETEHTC
Excerpt: In the AlphaScreen high-throughput screening model MIDAS (MITF Dependent Alpha-Screen), MITF was labeled with a Biotin tag recognized by Alpha donor beads and a His tag recognized by Alpha receptor beads, respectively. When MITF formed a dimer, Alpha Donor beads and Alpha Receptor beads were pulled close to each other and detected by 680 nm excitation light and 520-620 nm emission light, thereby monitoring the formation of MITF dimer.

LysRS-p38 interaction = LysRS-p38 interaction (Homo sapiens, UniProt Q13155+Q15046); assay: AlphaScreen control test, LysRS-p38 interaction; assay type: binding
[1] = test system: MITF landmark downstream genes-TYR and TRPM1; assay: Fluorescent quantitative RT-PCR of MITF downstream genes in B16F10 cells; assay type: cell-based; conditions: Mus musculus, B16-F10, B16F10 cell line, read-out: IC50 of inhibiting mRNA levels of TYR and TRPM1
Experimental: TT-012 was incubated with melanoma cell B16F10 cell line, mRNA was extracted and reverse transcripted, and the transcription of MITF landmark downstream genes-TYR (tyrosinase) and TRPM1 (transient receptor potential cation channel M1) were detected by fluorescent quantitative PCR.

B16F10 cells = assay: MTT cell activity, MITF-dependent melanoma cell line B16F10; assay type: cell-based; conditions: Mus musculus, B16-F10, MITF-dependent and highly expressed, read-out: IC50 of inhibiting growth of B16F10 cells
Experimental: (§1) The active TT012 was incubated with MITF-dependent and highly expressed melanoma cell line B16F10, the melanoma cell line A375 with low expression of MITF, and control cell line Hela, respectively, and cell activity was detected by MTT experiment.

A375 cells = assay: MTT cell activity, melanoma cell line A375 with low expression of MITF; assay type: cell-based
Experimental: as §1

Hela cells = assay: MTT cell activity, control cell line Hela; assay type: cell-based
Experimental: as §1

melanin formation = assay: Forskolin-induced melanin production; assay type: cell-based
Excerpt: MITF regulated the transcription and expression of melanin synthase TYR, TYRP1, and is the main regulatory factor of melanin formation. Foskolin, a small molecule compound, could regulate pathway, promote the expression of MITF, and promote melanin production by activating MSH-cAMP-CREB.

Chain of LysRS-p38 interaction (Q15046 whole entry): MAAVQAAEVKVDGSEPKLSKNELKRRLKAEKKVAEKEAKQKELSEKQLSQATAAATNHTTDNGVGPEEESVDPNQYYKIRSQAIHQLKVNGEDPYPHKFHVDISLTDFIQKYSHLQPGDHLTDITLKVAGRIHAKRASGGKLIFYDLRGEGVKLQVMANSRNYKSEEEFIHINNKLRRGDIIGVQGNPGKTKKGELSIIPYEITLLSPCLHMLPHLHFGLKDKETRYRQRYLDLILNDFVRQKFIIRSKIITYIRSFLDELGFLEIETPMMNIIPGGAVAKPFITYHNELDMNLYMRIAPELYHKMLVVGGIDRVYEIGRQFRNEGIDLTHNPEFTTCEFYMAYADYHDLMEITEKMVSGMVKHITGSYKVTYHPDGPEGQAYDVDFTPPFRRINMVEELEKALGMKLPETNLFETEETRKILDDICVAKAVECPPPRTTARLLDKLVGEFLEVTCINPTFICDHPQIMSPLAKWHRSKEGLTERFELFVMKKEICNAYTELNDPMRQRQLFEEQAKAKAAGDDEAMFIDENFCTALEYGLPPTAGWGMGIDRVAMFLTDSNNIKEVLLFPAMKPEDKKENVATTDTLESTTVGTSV
Chain of LysRS-p38 interaction (Q13155 whole entry): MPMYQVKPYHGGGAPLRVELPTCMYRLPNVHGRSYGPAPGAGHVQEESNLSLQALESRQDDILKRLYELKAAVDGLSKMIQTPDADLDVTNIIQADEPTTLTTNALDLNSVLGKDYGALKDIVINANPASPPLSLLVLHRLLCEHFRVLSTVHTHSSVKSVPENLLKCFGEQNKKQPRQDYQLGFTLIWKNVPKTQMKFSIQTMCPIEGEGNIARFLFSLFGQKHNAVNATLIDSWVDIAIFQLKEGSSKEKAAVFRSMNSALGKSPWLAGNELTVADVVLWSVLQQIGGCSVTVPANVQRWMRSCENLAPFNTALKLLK

- IC50 (MITF dimer): 10 nM
- effect on AlphaScreen signal of LysRS-p38 interaction (LysRS-p38 interaction): not affect
- IC50 [1]: 2000 nM
- IC50 (B16F10 cells): 300 nM
Structure (SMILES): O=C(/C=C/c1ccco1)Nc1cccc(NC(=O)/C=C/c2ccco2)n1 [TT-012]
- killing effect on A375 cells (A375 cells): no killing effects
- killing effect on control cells HELA (Hela cells): no killing effects
- inhibition of melanin formation (melanin formation): effectively inhibit

From patent US11077097B2, “Use of aromatic ring drug in inhibiting key transcription factor of malignant melanoma” (SHANGHAI INSTITUTE OF ORGANIC CHEMISTRY, CHINESE ACADEMY OF …, priority 2017, dated 2021)
